What was measured:
Assay in all cases: B2 Post-Emergence Efficacy - Test 2
Assay type in all cases: in vivo
Kochia scoparia (KSHSC) = settings: 15 days after application, 0-100 scale
Procedure, shortened: (§1)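 A 0–100 damage rating taken 15 days after application. Plants: 12 days old at spraying, glasshouse-grown (16 h light, 65% humidity, day/night 24/18 or 20/16 °C), watered twice daily. Spray: aqueous IF50 formulation, 0.2% v/v Genapol X080.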

[1] = tested on: Ipomoea hederacea (IPOHE); settings: 15 days after application, 0-100 scale
Procedure, shortened: as §1

[2] = tested on: Brachiaria plantaginea (BRAPL); settings: 15 days after application, 0=no damage, 100=total kill
Procedure, shortened: as §1

Bidens pilosa (BIDPI) = settings: 15 days after application, 0-100 scale
Procedure, shortened: as §1

Avena fatua (AVEFA) = settings: 15 days after application, 0-100 scale
Procedure, shortened: as §1

[3] = tested on: Digitaria sanguinalis (DIGSA); settings: 15 days after application, 0=no damage, 100=total kill
Procedure, shortened: as §1

[4] = tested on: Chenopodium album (CHEAL); settings: 15 days after application, 0-100 scale
Procedure, shortened: as §1

Poa annua (POAAN) = settings: 15 days after application, 0-100 scale
Procedure, shortened: as §1

[5] = tested on: Euphorbia hetrophylla (EPHHL); settings: 15 days after application, 0-100 scale
Procedure, shortened: as §1

Brassica napus (BRSNN) = settings: 15 days after application, 0-100 scale
Procedure, shortened: as §1

Orysa sativa (ORYSA) = settings: 15 days after application; for Herbicidal activity ORYSA: 0-100 scale; for Herbicidal activity on a 0-100 scale, ORYSA: 0=no damage, 100=total kill
Procedure, shortened: as §1

Stellaria media (STEME) = settings: 15 days after application, 0-100 scale
Procedure, shortened: as §1

[6] = tested on: Xanthium strumarium (XANST); settings: 15 days after application, 0-100 scale
Procedure, shortened: as §1

[7] = tested on: Triticum aestivum (TRZAW); settings: 15 days after application, 0-100 scale
Procedure, shortened: as §1

[8] = tested on: Panicum miliaceum (PANMI); settings: 15 days after application, 0=no damage, 100=total kill
Procedure, shortened: as §1

Galium aparine (GALAP) = settings: 15 days after application, 0-100 scale
Procedure, shortened: as §1

Sinapis arvensis (SINAR) = settings: 15 days after application, 0-100 scale
Procedure, shortened: as §1

Sorghum bicolour (SORVU) = settings: 15 days after application, 0=no damage, 100=total kill
Procedure, shortened: as §1

Cc1nn(C)c(=O)c(-c2c(F)ccc(Cl)c2CCc2ccc(Cl)cc2)c1OC(=O)C(C)C [Compound 1.089, [5-[3-chloro-2-[2-(4-chlorophenyl)ethyl]-6-fluoro-phenyl]-1,3-dimethyl-6-oxo-pyridazin-4-yl] 2-methylpropanoate]
Herbicidal activity KCHSC (Kochia scoparia (KSHSC); 15 g/Ha): 10 | Herbicidal activity KCHSC (Kochia scoparia (KSHSC); 30 g/Ha): 20 | Herbicidal activity KCHSC (Kochia scoparia (KSHSC); 60 g/Ha): 50 | Herbicidal activity KCHSC (Kochia scoparia (KSHSC); 125 g/Ha): 60 | Herbicidal activity KCHSC (Kochia scoparia (KSHSC); 250 g/Ha): 60 | Herbicidal activity KCHSC (Kochia scoparia (KSHSC); 500 g/Ha): 60 | Herbicidal activity IPOHE ([1]; 15 g/Ha): 100 | Herbicidal activity IPOHE ([1]; 30 g/Ha): 100 | Herbicidal activity IPOHE ([1]; 60 g/Ha): 100 | Herbicidal activity IPOHE ([1]; 125 g/Ha): 100 | Herbicidal activity IPOHE ([1]; 250 g/Ha): 100 | Herbicidal activity IPOHE ([1]; 500 g/Ha): 100 | Herbicidal activity on a 0-100 scale, BRAPL ([2]; 15 g/Ha): 80 | Herbicidal activity on a 0-100 scale, BRAPL ([2]; 30 g/Ha): 90 | Herbicidal activity on a 0-100 scale, BRAPL ([2]; 250 g/Ha): 90 | Herbicidal activity on a 0-100 scale, BRAPL ([2]; 500 g/Ha): 90 | Herbicidal activity BIDPI (Bidens pilosa (BIDPI); 15 g/Ha): 70 | Herbicidal activity BIDPI (Bidens pilosa (BIDPI); 30 g/Ha): 60 | Herbicidal activity BIDPI (Bidens pilosa (BIDPI); 60 g/Ha): 70 | Herbicidal activity BIDPI (Bidens pilosa (BIDPI); 125 g/Ha): 80 | Herbicidal activity BIDPI (Bidens pilosa (BIDPI); 250 g/Ha): 80 | Herbicidal activity BIDPI (Bidens pilosa (BIDPI); 500 g/Ha): 100 | Herbicidal activity AVEFA (Avena fatua (AVEFA); 15 g/Ha): 30 | Herbicidal activity AVEFA (Avena fatua (AVEFA); 30 g/Ha): 70 | Herbicidal activity AVEFA (Avena fatua (AVEFA); 60 g/Ha): 70 | Herbicidal activity AVEFA (Avena fatua (AVEFA); 125 g/Ha): 80 | Herbicidal activity AVEFA (Avena fatua (AVEFA); 250 g/Ha): 90 | Herbicidal activity AVEFA (Avena fatua (AVEFA); 500 g/Ha): 90 | Herbicidal activity on a 0-100 scale, DIGSA ([3]; 15 g/Ha): 0 | Herbicidal activity on a 0-100 scale, DIGSA ([3]; 30 g/Ha): 0 | Herbicidal activity on a 0-100 scale, DIGSA ([3]; 60 g/Ha): 0 | Herbicidal activity on a 0-100 scale, DIGSA ([3]; 125 g/Ha): 10 | Herbicidal activity on a 0-100 scale, DIGSA ([3]; 250 g/Ha): 40 | Herbicidal activity on a 0-100 scale, DIGSA ([3]; 500 g/Ha): 30 | Herbicidal activity CHEAL ([4]; 15 g/Ha): 80 | Herbicidal activity CHEAL ([4]; 30 g/Ha): 90 | Herbicidal activity CHEAL ([4]; 60 g/Ha): 90 | Herbicidal activity CHEAL ([4]; 125 g/Ha): 100 | Herbicidal activity CHEAL ([4]; 250 g/Ha): 100 | Herbicidal activity CHEAL ([4]; 500 g/Ha): 100 | Herbicidal activity POAAN (Poa annua (POAAN); 15 g/Ha): 20 | Herbicidal activity POAAN (Poa annua (POAAN); 30 g/Ha): 40 | Herbicidal activity POAAN (Poa annua (POAAN); 60 g/Ha): 70 | Herbicidal activity POAAN (Poa annua (POAAN); 125 g/Ha): 90 | Herbicidal activity POAAN (Poa annua (POAAN); 250 g/Ha): 80 | Herbicidal activity POAAN (Poa annua (POAAN); 500 g/Ha): 70 | Herbicidal activity EPHHL ([5]; 15 g/Ha): 80 | Herbicidal activity EPHHL ([5]; 30 g/Ha): 100 | Herbicidal activity EPHHL ([5]; 60 g/Ha): 100 | Herbicidal activity EPHHL ([5]; 125 g/Ha): 100 | Herbicidal activity EPHHL ([5]; 250 g/Ha): 100 | Herbicidal activity EPHHL ([5]; 500 g/Ha): 100 | Herbicidal activity BRSNN (Brassica napus (BRSNN); 15 g/Ha): 80 | Herbicidal activity BRSNN (Brassica napus (BRSNN); 30 g/Ha): 80 | Herbicidal activity BRSNN (Brassica napus (BRSNN); 60 g/Ha): 90 | Herbicidal activity BRSNN (Brassica napus (BRSNN); 125 g/Ha): 90 | Herbicidal activity BRSNN (Brassica napus (BRSNN); 250 g/Ha): 90 | Herbicidal activity BRSNN (Brassica napus (BRSNN); 500 g/Ha): 90 | Herbicidal activity ORYSA (Orysa sativa (ORYSA); 15 g/Ha): 0 | Herbicidal activity on a 0-100 scale, ORYSA (Orysa sativa (ORYSA); 15 g/Ha): 0 | Herbicidal activity ORYSA (Orysa sativa (ORYSA); 30 g/Ha): 0 | Herbicidal activity on a 0-100 scale, ORYSA (Orysa sativa (ORYSA); 30 g/Ha): 0 | Herbicidal activity ORYSA (Orysa sativa (ORYSA); 60 g/Ha): 0 | Herbicidal activity on a 0-100 scale, ORYSA (Orysa sativa (ORYSA); 60 g/Ha): 0 | Herbicidal activity ORYSA (Orysa sativa (ORYSA); 125 g/Ha): 10 | Herbicidal activity on a 0-100 scale, ORYSA (Orysa sativa (ORYSA); 125 g/Ha): 10 | Herbicidal activity ORYSA (Orysa sativa (ORYSA); 250 g/Ha): 20 | Herbicidal activity on a 0-100 scale, ORYSA (Orysa sativa (ORYSA); 250 g/Ha): 20 | Herbicidal activity ORYSA (Orysa sativa (ORYSA); 500 g/Ha): 50 | Herbicidal activity on a 0-100 scale, ORYSA (Orysa sativa (ORYSA); 500 g/Ha): 50 | Herbicidal activity STEME (Stellaria media (STEME); 15 g/Ha): 90 | Herbicidal activity STEME (Stellaria media (STEME); 30 g/Ha): 90 | Herbicidal activity STEME (Stellaria media (STEME); 60 g/Ha): 90 | Herbicidal activity STEME (Stellaria media (STEME); 125 g/Ha): 90 | Herbicidal activity STEME (Stellaria media (STEME); 250 g/Ha): 90 | Herbicidal activity STEME (Stellaria media (STEME); 500 g/Ha): 90 | Herbicidal activity XANST ([6]; 30 g/Ha): 90 | Herbicidal activity XANST ([6]; 60 g/Ha): 80 | Herbicidal activity XANST ([6]; 125 g/Ha): 90 | Herbicidal activity XANST ([6]; 250 g/Ha): 90 | Herbicidal activity XANST ([6]; 500 g/Ha): 100 | Herbicidal activity TRZAW ([7]; 15 g/Ha): 0 | Herbicidal activity TRZAW ([7]; 30 g/Ha): 0 | Herbicidal activity TRZAW ([7]; 60 g/Ha): 20 | Herbicidal activity TRZAW ([7]; 125 g/Ha): 30 | Herbicidal activity TRZAW ([7]; 250 g/Ha): 60 | Herbicidal activity TRZAW ([7]; 500 g/Ha): 70 | Herbicidal activity on a 0-100 scale, PANMI ([8]; 15 g/Ha): 0 | Herbicidal activity on a 0-100 scale, PANMI ([8]; 30 g/Ha): 20 | Herbicidal activity on a 0-100 scale, PANMI ([8]; 60 g/Ha): 50 | Herbicidal activity on a 0-100 scale, PANMI ([8]; 125 g/Ha): 60 | Herbicidal activity on a 0-100 scale, PANMI ([8]; 250 g/Ha): 80 | Herbicidal activity on a 0-100 scale, PANMI ([8]; 500 g/Ha): 90 | Herbicidal activity GALAP (Galium aparine (GALAP); 15 g/Ha): 10 | Herbicidal activity GALAP (Galium aparine (GALAP); 30 g/Ha): 20 | Herbicidal activity GALAP (Galium aparine (GALAP); 125 g/Ha): 30 | Herbicidal activity GALAP (Galium aparine (GALAP); 250 g/Ha): 30 | Herbicidal activity GALAP (Galium aparine (GALAP); 500 g/Ha): 90 | Herbicidal activity SINAR (Sinapis arvensis (SINAR); 15 g/Ha): 70 | Herbicidal activity SINAR (Sinapis arvensis (SINAR); 30 g/Ha): 80 | Herbicidal activity SINAR (Sinapis arvensis (SINAR); 60 g/Ha): 90 | Herbicidal activity SINAR (Sinapis arvensis (SINAR); 125 g/Ha): 90 | Herbicidal activity SINAR (Sinapis arvensis (SINAR); 250 g/Ha): 90 | Herbicidal activity SINAR (Sinapis arvensis (SINAR); 500 g/Ha): 90 | Herbicidal activity on a 0-100 scale, SORVU (Sorghum bicolour (SORVU); 15 g/Ha): 0 | Herbicidal activity on a 0-100 scale, SORVU (Sorghum bicolour (SORVU); 30 g/Ha): 60 | Herbicidal activity on a 0-100 scale, SORVU (Sorghum bicolour (SORVU); 60 g/Ha): 70 | Herbicidal activity on a 0-100 scale, SORVU (Sorghum bicolour (SORVU); 125 g/Ha): 90 | Herbicidal activity on a 0-100 scale, SORVU (Sorghum bicolour (SORVU); 250 g/Ha): 90 | Herbicidal activity on a 0-100 scale, SORVU (Sorghum bicolour (SORVU); 500 g/Ha): 90
